# Measured values published in patent US12570612B2, “Substituted nitrogen heterocyclic compound and anesthetic effect thereof” (priority 2019, dated 2026).
# Test system: Sprague-Dawley rats
# Assay: animal or person
# Format: in vivo
# Conditions: Rattus norvegicus; LORR, up and down method, tail vein, rats; class symbols; read-out: ED50
# Description: Evaluating indicator: The end point of anesthesia: the disappearance of forepaw righting reflex (lorr) was used as the end point of anesthesia; General anesthesia effect: the disappearance of forepaw righting reflex in rats lasting for 30 seconds is taken as the index of general anesthesia effect; Anesthesia recovery index: the recovery of rat forepaw righting reflex was used as the index of anesthesia recovery.
row,Structure (SMILES),ED50
1,COC(OC)(OC)C(=O)c1cncn1[C@H](C)c1ccccc1 [Compound D77],0.04 to 0.5 mg/kg
2,CCOC(=O)C(=O)c1cncn1[C@H](C)c1ccccc1 [Compound D81],0.5 to 1 mg/kg
3,COC(OC)(OC)C(=O)c1cc(F)nn1[C@H](C)c1ccccc1 [Compound D17],0.5 to 1 mg/kg
4,COC(OC)C(=O)c1cncn1[C@H](C)c1ccccc1 [Compound D87],1 to 2 mg/kg
5,COC(OC)C(=O)c1cc(F)nn1[C@H](C)c1ccccc1 [Compound D25],0.5 to 1 mg/kg
6,CC(C)CCOC(=O)C(=O)c1cncn1[C@H](C)c1ccccc1 [Compound D82],2 to 6 mg/kg
7,COC(=O)C(=O)c1cncn1[C@H](C)c1ccccc1 [Compound D80],> 6 mg/kg
8,COC(OC)(OC(C)C)C(=O)c1ccnn1[C@H](C)c1ccccc1 [Compound D4],2 to 6 mg/kg

# Same assay, conditions: rats
row,Structure (SMILES),Approximate therapeutic index
1,COC(OC)(OC)C(=O)c1cncn1[C@H](C)c1ccccc1 [Compound D77],>21.0
2,CCOC(=O)C(=O)c1cncn1[C@H](C)c1ccccc1 [Compound D81],>15.2
3,COC(OC)(OC)C(=O)c1cc(F)nn1[C@H](C)c1ccccc1 [Compound D17],>4.5
4,COC(OC)C(=O)c1cncn1[C@H](C)c1ccccc1 [Compound D87],>6.8
5,COC(OC)C(=O)c1cc(F)nn1[C@H](C)c1ccccc1 [Compound D25],>10.2
6,CC(C)CCOC(=O)C(=O)c1cncn1[C@H](C)c1ccccc1 [Compound D82],>6.3
7,COC(=O)C(=O)c1cncn1[C@H](C)c1ccccc1 [Compound D80],>2.9
8,COC(OC)(OC(C)C)C(=O)c1ccnn1[C@H](C)c1ccccc1 [Compound D4],>5.0

# Test system: Sprague-Dawley rats
# Assay: Pharmacological effect and adverse reactions under the equivalent dose (2ED50), Group D compounds
# Format: in vivo
# Conditions: 2ED50, tail vein, rats, n=8
# Description: Evaluation index: onset time: from the completion of drug injection to the disappearance of forepaw righting reflex in rats; Duration of anesthesia: the time from the disappearance of rat forepaw righting reflex to the recovery of rat forepaw righting reflex; Recovery time of anesthesia: the time from the […] to complete recovery;
Structure (SMILES),Righting reflex duration,Sedation duration
COC(OC)(OC)C(=O)c1cncn1[C@H](C)c1ccccc1 [Compound D77],1.43 ± 0.22 min,3.68 ± 0.56 min
CCOC(=O)C(=O)c1cncn1[C@H](C)c1ccccc1 [Compound D81],1.35 ± 0.12 min,4.87 ± 0.39 min
COC(OC)(OC)C(=O)c1cc(F)nn1[C@H](C)c1ccccc1 [Compound D17],0.86 ± 0.23 min,5.48 ± 0.50 min
COC(OC)C(=O)c1cncn1[C@H](C)c1ccccc1 [Compound D87],4.34 ± 0.54 min,8.26 ± 2.74 min
COC(OC)C(=O)c1cc(F)nn1[C@H](C)c1ccccc1 [Compound D25],1.52 ± 0.26 min,6.82 ± 0.27 min
CC(C)CCOC(=O)C(=O)c1cncn1[C@H](C)c1ccccc1 [Compound D82],0.98 ± 0.31 min,6.70 ± 1.46 min
COC(=O)C(=O)c1cncn1[C@H](C)c1ccccc1 [Compound D80],1.58 ± 0.61 min,6.42 ± 1.68 min
COC(OC)(OC(C)C)C(=O)c1ccnn1[C@H](C)c1ccccc1 [Compound D4],0.98 ± 0.35 min,7.28 ± 1.56 min

# Same assay, conditions: 2ED50, tail vein, rats, n=8; unit min
row,Structure (SMILES),Onset time
1,CCOC(=O)C(=O)c1cncn1[C@H](C)c1ccccc1 [Compound D81],<1 min
2,COC(OC)(OC)C(=O)c1cc(F)nn1[C@H](C)c1ccccc1 [Compound D17],<1 min
3,COC(OC)C(=O)c1cc(F)nn1[C@H](C)c1ccccc1 [Compound D25],<1 min
4,CC(C)CCOC(=O)C(=O)c1cncn1[C@H](C)c1ccccc1 [Compound D82],<1 min
5,COC(OC)(OC(C)C)C(=O)c1ccnn1[C@H](C)c1ccccc1 [Compound D4],<1 min

# Same assay, conditions: 2ED50, tail vein, rats, n=8; unit s
row,Structure (SMILES),Onset time
1,COC(OC)(OC)C(=O)c1cncn1[C@H](C)c1ccccc1 [Compound D77],<0.5 min
2,COC(OC)C(=O)c1cncn1[C@H](C)c1ccccc1 [Compound D87],<0.5 min
3,COC(=O)C(=O)c1cncn1[C@H](C)c1ccccc1 [Compound D80],<0.5 min

# Same assay, conditions: equivalent dose (2 × ED50), number of rats of n = 8
Structure (SMILES),Adverse reaction: Convulsions,"Adverse reaction: Cough, broken-winded",Adverse reaction: Euphoria,Adverse reaction: Four limbs rigidity,Adverse reaction: Red urine,"Adverse reaction: Slower breathing, Tetany convulsion","Adverse reaction: Systemic stiffness, Convulsions, Opisthotonus",Adverse reaction: Tongue stretching,Adverse reaction: Tremor
COC(OC)(OC)C(=O)c1cncn1[C@H](C)c1ccccc1 [Compound D77],0,0,0,0,8,0,8,1,0
CCOC(=O)C(=O)c1cncn1[C@H](C)c1ccccc1 [Compound D81],0,0,0,1,8,0,0,0,1
COC(OC)(OC)C(=O)c1cc(F)nn1[C@H](C)c1ccccc1 [Compound D17],0,0,0,1,8,0,0,0,0
COC(OC)C(=O)c1cncn1[C@H](C)c1ccccc1 [Compound D87],0,0,0,0,8,0,5,0,0
COC(OC)C(=O)c1cc(F)nn1[C@H](C)c1ccccc1 [Compound D25],0,0,0,1,8,0,0,0,2
CC(C)CCOC(=O)C(=O)c1cncn1[C@H](C)c1ccccc1 [Compound D82],0,0,0,2,8,0,0,1,0
COC(=O)C(=O)c1cncn1[C@H](C)c1ccccc1 [Compound D80],0,0,0,4,8,0,0,0,0
COC(OC)(OC(C)C)C(=O)c1ccnn1[C@H](C)c1ccccc1 [Compound D4],0,0,0,0,8,0,0,0,0

# Test system: SD rats
# Assay: not given
# Conditions: after 1 hour continuous infusion at 2 times the MIR, SD rats
# Experimental: Experimental Methods: Adult male SD rats with body weight ranging from 250 g to 350 g were selected for continuous infusion test.
# Evaluation indexes: the time from the beginning of continuous infusion to the […] of sedation in rats; the time from the cessation of infusion to the restoration of the forepaw turning reflex after 1 hour of continuous infusion; the time from the cessation of infusion to the complete restoration of rats after 1 hour of continuous infusion.
Structure (SMILES),After the infusion is stopped: Righting reflex recovery time,Recovery time after stopping infusion
COC(OC)(OC)C(=O)c1cncn1[C@H](C)c1ccccc1 [Compound D77],12 to 16 min,20 to 30 min
CCOC(=O)C(=O)c1cncn1[C@H](C)c1ccccc1 [Compound D81],13 to 14 min,15 to 25 min
COC(OC)(OC)C(=O)c1cc(F)nn1[C@H](C)c1ccccc1 [Compound D17],15 to 22 min,25 to 35 min
COC(OC)C(=O)c1cc(F)nn1[C@H](C)c1ccccc1 [Compound D25],16 to 24 min,30 to 40 min

# Same assay, conditions: continuous infusion 2 x MIR 1 hour; rats affected/rats
Structure (SMILES),Types and incidence of adverse reactions: Red urine,Types and incidence of adverse reactions: Tongue stretching,Types and incidence of adverse reactions: Tremor,Types and incidence of adverse reactions: the four limbs rigidity,Types and incidence of adverse reactions: Hindlimb rigidity
COC(OC)(OC)C(=O)c1cncn1[C@H](C)c1ccccc1 [Compound D77],"Red urine(6/6), Tongue","stretching(3/6), Tremor(3/6)","stretching(3/6), Tremor(3/6)",–,–
CCOC(=O)C(=O)c1cncn1[C@H](C)c1ccccc1 [Compound D81],6/6,–,2/6,the four limbs rigidity(2/6),–
COC(OC)(OC)C(=O)c1cc(F)nn1[C@H](C)c1ccccc1 [Compound D17],6/6,–,1/6,–,–
COC(OC)C(=O)c1cc(F)nn1[C@H](C)c1ccccc1 [Compound D25],6/6,–,2/6,–,Hindlimb rigidity(1/6)

# Same assay, conditions: continuous tail vein infusion at 2 times the MIR, SD rats
row,Structure (SMILES),Sedation onset time
1,COC(OC)(OC)C(=O)c1cncn1[C@H](C)c1ccccc1 [Compound D77],<5 min
2,CCOC(=O)C(=O)c1cncn1[C@H](C)c1ccccc1 [Compound D81],<5 min
3,COC(OC)(OC)C(=O)c1cc(F)nn1[C@H](C)c1ccccc1 [Compound D17],<5 min
4,COC(OC)C(=O)c1cc(F)nn1[C@H](C)c1ccccc1 [Compound D25],<5 min

# Test system: Sprague-Dawley rats
# Assay: not given
# Format: in vivo
# Conditions: tail vein
row,Structure (SMILES),Minimal lethal dose
1,COC(OC)(OC)C(=O)c1cncn1[C@H](C)c1ccccc1 [Compound D77],>1.4 mg/kg
2,CCOC(=O)C(=O)c1cncn1[C@H](C)c1ccccc1 [Compound D81],>12.6 mg/kg
3,COC(OC)(OC)C(=O)c1cc(F)nn1[C@H](C)c1ccccc1 [Compound D17],>11.9 mg/kg
4,COC(OC)C(=O)c1cncn1[C@H](C)c1ccccc1 [Compound D87],>13.2 mg/kg
5,COC(OC)C(=O)c1cc(F)nn1[C@H](C)c1ccccc1 [Compound D25],>8.4 mg/kg
6,CC(C)CCOC(=O)C(=O)c1cncn1[C@H](C)c1ccccc1 [Compound D82],>7.8 mg/kg
7,COC(=O)C(=O)c1cncn1[C@H](C)c1ccccc1 [Compound D80],>12.2 mg/kg
8,COC(OC)(OC(C)C)C(=O)c1ccnn1[C@H](C)c1ccccc1 [Compound D4],>10.1 mg/kg
